# Source: paper PMC7673538 (PLoS Biology, 2020)
# Values joined by “and” are separate entries in the source; they are usually repeats but may differ in a detail not shown here. Equal values may be shown once. Read-outs that look alike come from different tables or passages of the source.
# Assays:
# Test in all cases: microbe, parasite or virus in culture
# EV-A71 = assay type: cell-based, enterovirus A71
# CV-B3 = assay type: cell-based, coxsackievirus B3
# PV-1 = assay type: cell-based, poliovirus 1
# CV-A24 = assay type: cell-based, coxsackievirus A24; details: Enterovirus C, CVA24, HeLa R19, read-out: EC50 CV-A24
# CV-A24v = assay type: cell-based, coxsackievirus A24v
# EV-D68 = assay type: cell-based, enterovirus D68
compound,measurement,setting,value
"O=C(c1cc[nH]c1)N(Cc1ccc(F)cc1)c1ccccc1 [Compound 12b, N-(4-Fluorobenzyl)-N-phenyl-1H-pyrrole-3-carboxamide]","Figure 7 dose-response raw data, EV-A71 (triplicate values)",EV-A71; Concentration 0.0046 µM,8.524 and 14.1813 and 13.8349
same,"Figure 7 dose-response raw data, EV-A71 (triplicate values)",EV-A71; Concentration 0.0137 µM,8.178 and 10.6023 and 11.4104
same,"Figure 7 dose-response raw data, EV-A71 (triplicate values)",EV-A71; Concentration 0.0412 µM,8.755 and 10.1405 and 13.8349
same,"Figure 7 dose-response raw data, EV-A71 (triplicate values)",EV-A71; Concentration 0.1235 µM,8.6396 and 9.794 and 10.7177
same,"Figure 7 dose-response raw data, EV-A71 (triplicate values)",EV-A71; Concentration 0.3704 µM,31.7298 and 16.0285 and 26.5345
same,"Figure 7 dose-response raw data, EV-A71 (triplicate values)",EV-A71; Concentration 1.1111 µM,89.9407 and 116.561 and 102.065
same,"Figure 7 dose-response raw data, EV-A71 (triplicate values)",EV-A71; Concentration 3.3333 µM,91.1267 and 117.088 and 97.8476
same,"Figure 7 dose-response raw data, EV-A71 (triplicate values)",EV-A71; Concentration 11.1111 µM,100.747 and 119.064 and 107.468
same,"Figure 7 dose-response raw data, EV-A71 (triplicate values)",EV-A71; Concentration 33.3333 µM,107.747 and 119.064 and 117.468
same,"Figure 7 dose-response raw data, EV-A71 (triplicate values)",EV-A71; Concentration 100 µM,110.747 and 119.064 and 107.468
same,EC50,"EV-A71; Enterovirus A, EVA71, HeLa R19, read-out: Table in Figure 7A, EV-A71, AVERAGE",0.49 µM
same,"Figure 7 dose-response raw data, CV-B3 (triplicate values)",CV-B3; Concentration 0.001 µM,12.7273 and 16.4436 and 14.7652
same,"Figure 7 dose-response raw data, CV-B3 (triplicate values)",CV-B3; Concentration 0.0046 µM,88.2521 and 78.519 and 79.7121
same,"Figure 7 dose-response raw data, CV-B3 (triplicate values)",CV-B3; Concentration 0.0137 µM,101.732 and 101.506 and 105.007
same,"Figure 7 dose-response raw data, CV-B3 (triplicate values)",CV-B3; Concentration 0.0412 µM,102.861 and 101.167 and 103.426
same,"Figure 7 dose-response raw data, CV-B3 (triplicate values)",CV-B3; Concentration 0.1235 µM,99.9247 and 100.263 and 102.748
same,"Figure 7 dose-response raw data, CV-B3 (triplicate values)",CV-B3; Concentration 0.3704 µM,101.957 and 103.877 and 102.635
same,"Figure 7 dose-response raw data, CV-B3 (triplicate values)",CV-B3; Concentration 1.1111 µM,101.393 and 99.9247 and 103.426
same,"Figure 7 dose-response raw data, CV-B3 (triplicate values)",CV-B3; Concentration 3.3333 µM,102.974 and 100.151 and 104.555
same,"Figure 7 dose-response raw data, CV-B3 (triplicate values)",CV-B3; Concentration 10 µM,101.167 and 95.9721 and 104.668
same,EC50,"CV-B3; Enterovirus B, CVB3, HeLa R19, read-out: Table in Figure 7A, CV-B3, AVERAGE",0.0029 µM
same,EC50,"CV-B3; Enterovirus B, CVB3, HeLa R19, read-out: Table in Figure 7A, CV-B3, exp1-exp3",0.00298 µM
same,EC50,"CV-B3; read-out: Table in Figure 7A, CV-B3, exp1-exp3",0.0032 µM and 0.00255 µM
same,"Figure 7 dose-response raw data, PV-1 (triplicate values)",PV-1; Concentration 0.0046 µM,11.045 and 11.5939
same,"Figure 7 dose-response raw data, PV-1 (triplicate values)",PV-1; Concentration 0.0137 µM,11.045 and 11.5939
same,"Figure 7 dose-response raw data, PV-1 (triplicate values)",PV-1; Concentration 0.0412 µM,11.045 and 11.8683 and 12.5543
same,"Figure 7 dose-response raw data, PV-1 (triplicate values)",PV-1; Concentration 0.1235 µM,9.9474 and 11.3195 and 12.0055
same,"Figure 7 dose-response raw data, PV-1 (triplicate values)",PV-1; Concentration 0.3704 µM,13.3775 and 12.0055 and 11.7311
same,"Figure 7 dose-response raw data, PV-1 (triplicate values)",PV-1; Concentration 1.1111 µM,20.2378 and 15.8472 and 16.3961
same,"Figure 7 dose-response raw data, PV-1 (triplicate values)",PV-1; Concentration 3.3333 µM,109.849 and 103.263 and 104.772
same,"Figure 7 dose-response raw data, PV-1 (triplicate values)",PV-1; Concentration 11.1111 µM,100.535 and 102.561 and 105.184
same,"Figure 7 dose-response raw data, PV-1 (triplicate values)",PV-1; Concentration 33.3333 µM,94.7887 and 93.7377 and 106.219
same,"Figure 7 dose-response raw data, PV-1 (triplicate values)",PV-1; Concentration 100 µM,94.2632 and 96.1025 and 105.824
same,EC50,"PV-1; Enterovirus C, HeLa R19, read-out: Table in Figure 7A, Polio, AVERAGE",1.39 µM
same,EC50,"PV-1; Enterovirus C, HeLa R19, read-out: Table in Figure 7A, Polio, exp1-exp3",1.76 µM
same,EC50,"PV-1; read-out: Table in Figure 7A, Polio, exp1-exp3",1.42 µM and 0.99 µM
same,EC50,CV-A24,1.33 ± 0.24 µM
same,"Figure 7 dose-response raw data, CV-A24v (triplicate values)",CV-A24v; Concentration 0.0046 µM,11.045 and 11.5939
same,"Figure 7 dose-response raw data, CV-A24v (triplicate values)",CV-A24v; Concentration 0.0137 µM,14.0988 and 16.3593 and 16.4783
same,"Figure 7 dose-response raw data, CV-A24v (triplicate values)",CV-A24v; Concentration 0.0412 µM,14.0988 and 16.3593 and 16.4783
same,"Figure 7 dose-response raw data, CV-A24v (triplicate values)",CV-A24v; Concentration 0.1235 µM,14.8126 and 12.909 and 19.2147
same,"Figure 7 dose-response raw data, CV-A24v (triplicate values)",CV-A24v; Concentration 0.3704 µM,14.8126 and 13.6228 and 22.1892
same,"Figure 7 dose-response raw data, CV-A24v (triplicate values)",CV-A24v; Concentration 1.1111 µM,14.8126 and 13.6228 and 22.1892
same,"Figure 7 dose-response raw data, CV-A24v (triplicate values)",CV-A24v; Concentration 3.3333 µM,106.3 and 102.374 and 110.232
same,"Figure 7 dose-response raw data, CV-A24v (triplicate values)",CV-A24v; Concentration 11.1111 µM,105.473 and 108.334 and 112.487
same,"Figure 7 dose-response raw data, CV-A24v (triplicate values)",CV-A24v; Concentration 33.3333 µM,98.3206 and 97.0611 and 97.1756
same,"Figure 7 dose-response raw data, CV-A24v (triplicate values)",CV-A24v; Concentration 100 µM,82.2926 and 86.3728 and 89.8506
same,EC50,"CV-A24v; Coxsackievirus, HeLa R19, read-out: Table in Figure 7A, CVA24v, AVERAGE",1.34 µM
same,EC50,"CV-A24v; Coxsackievirus, HeLa R19, read-out: Table in Figure 7A, CVA24v, exp1-exp3",1.11 µM
same,EC50,"CV-A24v; read-out: Table in Figure 7A, CVA24v, exp1-exp3",1.23 µM and 1.67 µM
same,"Figure 7 dose-response raw data, EV-D68 (triplicate values)",EV-D68; Concentration 0.001 µM,11.1333 and 12.4782 and 12.9265
same,"Figure 7 dose-response raw data, EV-D68 (triplicate values)",EV-D68; Concentration 0.0046 µM,12.1793 and 12.9265 and 15.0187
